Active and inactive are the calls of the source. No cut-off for these calls is given here.
Experiments:
[1] = molecular target: T1, Protein cereblon/Poly [ADP-ribose] polymerase 1 (Homo sapiens, UniProt P09874+Q96SW2); experiment: PROTAC activity at CRBN/PARP1 in human HCT-116 cells assessed as decrease in PARP1 level at 1 uM measured after 4 hrs; format: cell-based
Target sequence in this assay (P09874 2-1014 limits assumed): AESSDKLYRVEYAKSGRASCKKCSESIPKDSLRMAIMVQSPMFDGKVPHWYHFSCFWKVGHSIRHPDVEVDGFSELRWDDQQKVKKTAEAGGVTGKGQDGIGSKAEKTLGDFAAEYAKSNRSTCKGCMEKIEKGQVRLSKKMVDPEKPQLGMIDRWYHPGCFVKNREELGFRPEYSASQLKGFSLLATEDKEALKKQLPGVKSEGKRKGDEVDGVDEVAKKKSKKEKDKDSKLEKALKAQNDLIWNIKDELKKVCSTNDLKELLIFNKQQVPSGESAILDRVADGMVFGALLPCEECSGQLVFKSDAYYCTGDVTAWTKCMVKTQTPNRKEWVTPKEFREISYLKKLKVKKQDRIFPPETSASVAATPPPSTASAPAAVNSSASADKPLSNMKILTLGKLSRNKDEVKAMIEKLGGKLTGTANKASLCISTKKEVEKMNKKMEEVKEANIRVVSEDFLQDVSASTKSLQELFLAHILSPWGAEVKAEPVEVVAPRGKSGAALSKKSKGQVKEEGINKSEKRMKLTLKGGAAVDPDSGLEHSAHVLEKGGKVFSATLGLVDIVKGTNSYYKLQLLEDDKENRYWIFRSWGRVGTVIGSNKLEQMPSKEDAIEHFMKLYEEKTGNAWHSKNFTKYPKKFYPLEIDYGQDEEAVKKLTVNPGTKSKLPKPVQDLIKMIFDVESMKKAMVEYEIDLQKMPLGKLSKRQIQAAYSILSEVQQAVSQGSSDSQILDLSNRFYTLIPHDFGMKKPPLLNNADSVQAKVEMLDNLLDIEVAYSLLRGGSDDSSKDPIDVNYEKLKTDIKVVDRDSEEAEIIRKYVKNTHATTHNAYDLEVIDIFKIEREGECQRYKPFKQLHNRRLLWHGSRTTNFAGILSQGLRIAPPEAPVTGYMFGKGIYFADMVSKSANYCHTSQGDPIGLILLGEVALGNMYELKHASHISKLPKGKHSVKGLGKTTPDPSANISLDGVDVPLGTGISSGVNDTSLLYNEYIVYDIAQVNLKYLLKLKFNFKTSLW
Target sequence in this assay (Q96SW2 whole entry partner): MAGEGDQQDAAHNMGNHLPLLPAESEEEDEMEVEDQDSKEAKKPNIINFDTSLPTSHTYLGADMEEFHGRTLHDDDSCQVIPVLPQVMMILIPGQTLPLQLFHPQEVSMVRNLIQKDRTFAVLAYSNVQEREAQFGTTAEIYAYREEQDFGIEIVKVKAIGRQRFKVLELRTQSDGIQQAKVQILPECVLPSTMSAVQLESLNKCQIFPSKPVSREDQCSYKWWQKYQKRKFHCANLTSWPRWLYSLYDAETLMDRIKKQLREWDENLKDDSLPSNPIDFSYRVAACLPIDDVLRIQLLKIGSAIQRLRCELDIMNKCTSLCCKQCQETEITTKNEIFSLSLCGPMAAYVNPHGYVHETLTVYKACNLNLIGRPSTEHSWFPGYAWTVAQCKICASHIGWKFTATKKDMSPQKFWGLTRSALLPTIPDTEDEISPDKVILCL

[2] = molecular target: T1, Protein cereblon/Poly [ADP-ribose] polymerase 1; experiment: PROTAC activity at CRBN/PARP1 in human HCT-116 cells assessed as degradation of PARP1 measured after 24 hrs; format: cell-based
Target sequence in this assay (P09874 whole entry): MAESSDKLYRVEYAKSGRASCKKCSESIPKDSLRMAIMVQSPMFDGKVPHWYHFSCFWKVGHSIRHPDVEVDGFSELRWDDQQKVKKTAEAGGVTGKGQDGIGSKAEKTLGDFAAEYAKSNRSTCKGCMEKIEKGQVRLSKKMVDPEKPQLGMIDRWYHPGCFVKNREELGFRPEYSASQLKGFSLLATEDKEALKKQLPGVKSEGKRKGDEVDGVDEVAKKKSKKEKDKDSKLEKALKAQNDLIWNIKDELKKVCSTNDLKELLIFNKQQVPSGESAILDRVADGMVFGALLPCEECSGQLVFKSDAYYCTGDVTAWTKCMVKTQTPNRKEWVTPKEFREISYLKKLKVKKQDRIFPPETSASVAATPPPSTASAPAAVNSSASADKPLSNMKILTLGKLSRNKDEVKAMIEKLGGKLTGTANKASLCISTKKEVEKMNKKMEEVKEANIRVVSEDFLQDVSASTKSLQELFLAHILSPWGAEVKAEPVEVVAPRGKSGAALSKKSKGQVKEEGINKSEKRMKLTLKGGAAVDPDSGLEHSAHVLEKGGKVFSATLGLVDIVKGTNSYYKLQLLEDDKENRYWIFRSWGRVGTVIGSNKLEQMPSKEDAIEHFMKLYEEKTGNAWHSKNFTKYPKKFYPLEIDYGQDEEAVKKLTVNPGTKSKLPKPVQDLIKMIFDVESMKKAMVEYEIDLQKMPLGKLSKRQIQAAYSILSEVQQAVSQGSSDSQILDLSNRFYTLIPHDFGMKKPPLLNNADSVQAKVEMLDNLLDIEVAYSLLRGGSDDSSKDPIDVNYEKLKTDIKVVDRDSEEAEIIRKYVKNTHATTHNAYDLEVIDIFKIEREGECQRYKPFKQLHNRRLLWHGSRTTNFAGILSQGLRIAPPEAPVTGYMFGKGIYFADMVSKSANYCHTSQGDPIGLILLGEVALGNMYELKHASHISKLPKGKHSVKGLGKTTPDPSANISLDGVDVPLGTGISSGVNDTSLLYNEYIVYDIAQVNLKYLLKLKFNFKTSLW
Target sequence in this assay (Q96SW2 whole entry): as the sequence (Q96SW2 whole entry partner) above

[3] = molecular target: T1, Protein cereblon/Poly [ADP-ribose] polymerase 1; experiment: PROTAC activity at CRBN/PARP1 in human RKO cells assessed as degradation of PARP1 measured after 24 hrs; format: cell-based
Target sequence in this assay (P09874 whole entry): as the sequence (P09874 whole entry) above
Target sequence in this assay (Q96SW2 whole entry): as the sequence (Q96SW2 whole entry partner) above

[4] = molecular target: T2, Protein cereblon/Poly [ADP-ribose] polymerase 2 (Homo sapiens, UniProt Q9UGN5+Q96SW2); experiment: PROTAC activity at CRBN/PARP2 in human HCT-116 cells assessed as degradation of PARP2; format: cell-based
Target sequence in this assay (Q9UGN5 whole entry): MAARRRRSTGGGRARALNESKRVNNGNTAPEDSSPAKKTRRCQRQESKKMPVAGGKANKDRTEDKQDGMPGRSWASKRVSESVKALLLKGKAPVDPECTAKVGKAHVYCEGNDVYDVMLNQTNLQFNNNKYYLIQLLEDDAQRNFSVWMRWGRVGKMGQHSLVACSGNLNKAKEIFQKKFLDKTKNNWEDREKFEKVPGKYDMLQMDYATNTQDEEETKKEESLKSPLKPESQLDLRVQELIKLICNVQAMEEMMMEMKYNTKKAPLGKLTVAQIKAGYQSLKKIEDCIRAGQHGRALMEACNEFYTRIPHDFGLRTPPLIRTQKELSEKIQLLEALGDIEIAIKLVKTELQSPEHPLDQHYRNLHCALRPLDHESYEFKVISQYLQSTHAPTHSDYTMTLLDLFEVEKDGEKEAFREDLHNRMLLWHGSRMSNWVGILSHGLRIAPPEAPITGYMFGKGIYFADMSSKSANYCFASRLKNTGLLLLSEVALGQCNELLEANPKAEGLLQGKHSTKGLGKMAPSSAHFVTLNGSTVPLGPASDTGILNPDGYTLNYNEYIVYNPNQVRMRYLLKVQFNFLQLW
Target sequence in this assay (Q96SW2 whole entry): as the sequence (Q96SW2 whole entry partner) above

[5] = molecular target: T2, Protein cereblon/Poly [ADP-ribose] polymerase 2; experiment: PROTAC activity at CRBN/PARP2 in human HCT-116 cells assessed as maximum degradation of PARP2 relative to control; format: cell-based
Target sequence in this assay (Q96SW2 whole entry, looked up): as the sequence (Q96SW2 whole entry partner) above
Target sequence in this assay (Q9UGN5 whole entry, looked up): as the sequence (Q9UGN5 whole entry) above

[6] = molecular target: T1, Protein cereblon/Poly [ADP-ribose] polymerase 1; experiment: PROTAC activity at CRBN/PARP1 in human HCT-116 cells assessed as degradation of PARP1 at 1 uM in presence of MG132; format: cell-based
Target sequence in this assay (P09874 2-1014 limits assumed): as the sequence (P09874 2-1014 limits assumed) above
Target sequence in this assay (Q96SW2 whole entry partner): as the sequence (Q96SW2 whole entry partner) above

SW-620 = experiment: Potency index, ratio of SK-575 IC50 to test compound IC50 for cytotoxicity against human SW620 cells assessed as inhibition of cell growth measured after 72 hrs by CCK-8 method; format: functional
[7] = Potency index, ratio of SK-575 IC50 to test compound IC50 for cytotoxicity against human LoVo cells assessed as inhibition of cell growth measured after 72 hrs by CCK-8 method; format: functional
[8] = Cytotoxicity against human BEAS-2B cells assessed as inhibition of cell growth measured after 72 hrs by CCK-8 method; format: toxicity, cell-based
HCT-116 [9] = experiment: Synergistic antiproliferative activity against human HCT-116 cells assessed as combination index at 0.5 uM measured after 72 hrs in presence of 2.5 nM of SN-38 by CCK-8 method; format: functional
HCT-116 [10] = experiment: Synergistic antiproliferative activity against human HCT-116 cells assessed as combination index at 0.5 uM measured after 72 hrs in presence of 5 nM of SN-38 by CCK-8 method; format: functional
HCT-116 [11] = experiment: Synergistic antiproliferative activity against human HCT-116 cells assessed as combination index at 1 uM measured after 72 hrs in presence of 2.5 nM of SN-38 by CCK-8 method; format: functional
HCT-116 [12] = experiment: Synergistic antiproliferative activity against human HCT-116 cells assessed as combination index at 1 uM measured after 72 hrs in presence of 10 nM of SN-38 by CCK-8 method; format: functional
HCT-116 [13] = experiment: Synergistic antiproliferative activity against human HCT-116 cells assessed as combination index at 2 uM measured after 72 hrs in presence of 5 nM of SN-38 by CCK-8 method; format: functional
HCT-116 [14] = experiment: Synergistic antiproliferative activity against human HCT-116 cells assessed as combination index at 4 uM measured after 72 hrs in presence of 0.625 nM of SN-38 by CCK-8 method; format: functional
HCT-116 [15] = experiment: Synergistic antiproliferative activity against human HCT-116 cells assessed as combination index at 4 uM measured after 72 hrs in presence of 2.5 nM of SN-38 by CCK-8 method; format: functional
HCT-116 [16] = experiment: Synergistic antiproliferative activity against human HCT-116 cells assessed as combination index at 4 uM measured after 72 hrs in presence of 10 nM of SN-38 by CCK-8 method; format: functional
HCT-116 [17] = experiment: Induction of apoptosis in human HCT-116 cells assessed as necrotic cells at 1 uM measured after 72 hrs in presence of SN-38 by annexin V/FITC and PI staining based flow cytometry analysis (reference value: 0.16%); format: functional
HCT-116 [18] = experiment: Induction of cell cycle arrest in human HCT-116 cells assessed as accumulation of cells at G2/M phase at 1 uM measured after 72 hrs in presence of SN-38 by PI staining based flow cytometry analysis; format: functional
HCT-116 [19] = experiment: Effect on BRCA level in human HCT-116 cells at 1 uM in presence of SN-38 by Western blot analysis; format: functional, cell-based
HCT-116 [20] = experiment: Downregulation of CDC25 level in human HCT-116 cells at 1 uM in presence of SN-38 by KEGG enrichment analysis; format: functional, cell-based
HCT-116 [21] = experiment: Upregulation of ATP5PD level in human HCT-116 cells at 1 uM in presence of SN-38 by KEGG enrichment analysis; format: functional, cell-based
HCT-116 [22] = experiment: Upregulation of HMCN1 level in human HCT-116 cells at 1 uM in presence of SN-38 by KEGG enrichment analysis; format: functional, cell-based
HCT-116 [23] = experiment: Effect on Rad51 protein level in human HCT-116 cells at 1 uM in presence of SN-38 by Western blot analysis; format: functional, cell-based
HCT-116 [24] = experiment: Effect on p53 protein level in human HCT-116 cells at 1 uM in presence of SN-38 by Western blot analysis; format: functional, cell-based
HCT-116 [25] = experiment: Upregulation of CHK1 level in human HCT-116 cells at 1 uM in presence of SN-38 by Western blot analysis; format: functional, cell-based

With `NC(=O)c1cccc2cn(-c3ccc([C@@H]4CCCN(CCC5CCN(CCC6CCN(CC7CCN(c8ccc9c(c8)C(=O)N(C8CCC(=O)NC8=O)C9=O)CC7)CC6)CC5)C4)cc3)nc12` (stereo partly specified) the Activity [1] was “Active”, the DC50 [2] was 0.0581 µM and the DC50 [3] was 0.161 µM. The DC50 [4] was 19.1 µM, the Emax [5] was 84.8% and the Activity [6] was “inactive”. The “Ratio IC50” value (SW-620) was <6, the “Ratio IC50” value [7] was <3.5 and the IC50 at 72 h [8] was 8.29 µM. It also gave a CI (HCT-116 [9]) of 0.879, a CI (HCT-116 [10]) of 0.756 and a CI (HCT-116 [11]) of 0.823. For the same molecule, the CI (HCT-116 [12]) was 0.698, the CI (HCT-116 [13]) was 0.752 and the CI (HCT-116 [14]) was 0.567. For the same molecule, the CI (HCT-116 [15]) was 0.545, the CI (HCT-116 [16]) was 0.538 and the Activity (HCT-116 [17]) was 10.2%. The Activity (HCT-116 [18]) was “Active”, the Activity (HCT-116 [19]) was “inactive” and the Activity (HCT-116 [20]) was “Active”. For the same molecule, the Activity (HCT-116 [21]) was “Active”, the Activity (HCT-116 [22]) was “Active” and the Activity (HCT-116 [23]) was “inactive”. The Activity (HCT-116 [24]) was “inactive” and the Activity (HCT-116 [25]) was “Active”.

— ChEMBL document CHEMBL6120985, “Discovery of a potent PARP1 PROTAC as a chemosensitizer for the treatment of colorectal cancer” (Eur J Med Chem, 2025)
